The text below walks through data of paper PMC9220355, “Inhibition of the Peroxygenase Lytic Polysaccharide Monooxygenase by Carboxylic Acids and Amino Acids” (Antioxidants, 2022).

One experiment concerns the target T1, NcLPMO9C (Neurospora crassa, UniProt Q7SHI8).
T1 sequence (Q7SHI8 17-359): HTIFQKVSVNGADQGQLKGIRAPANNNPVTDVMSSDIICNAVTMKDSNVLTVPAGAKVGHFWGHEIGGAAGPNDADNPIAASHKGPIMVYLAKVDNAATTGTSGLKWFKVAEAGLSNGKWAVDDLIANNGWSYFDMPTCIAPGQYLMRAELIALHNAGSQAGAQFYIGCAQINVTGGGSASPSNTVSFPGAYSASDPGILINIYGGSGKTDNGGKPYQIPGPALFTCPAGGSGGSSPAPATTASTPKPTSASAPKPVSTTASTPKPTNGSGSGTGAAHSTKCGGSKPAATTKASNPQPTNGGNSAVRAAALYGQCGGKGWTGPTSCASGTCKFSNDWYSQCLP
Experiment: not given
The settings on record: - Ascorbic acid (blank); 4 h, 4 × 100 µM H2O2, 100 mM compound.
The compound `CC(=O)O` [Acetic acid] gave a Total cello-oligomers produced of 14.6 µM, a cellobiose produced of 4.2 µM, a cellotetraose produced of 6.2 µM and a cellotriose produced of 4.3 µM.
Taken in the same sequence, the figures for `O=C(O)CC(O)(CC(=O)O)C(=O)O` [Citric acid] were 17.3 µM, 7.2 µM, 5.9 µM and 4.2 µM.
The matching figures for `CC(O)C(=O)O` (centres unmarked) [Lactic acid]: 12.4 µM, 3.5 µM, 5.4 µM and 3.6 µM.
Taken in the same sequence, the figures for `O=C(O)C(=O)O` [Oxalic acid] were 15.8 µM, 6.8 µM, 5.3 µM and 3.7 µM.
The compound `O=P(O)(O)O` [Phosphoric acid] came in with a Total cello-oligomers produced of 14.8 µM, a cellobiose produced of 6.9 µM, a cellotetraose produced of 4.6 µM and a cellotriose produced of 3.3 µM.
The compound `CC(=O)C(=O)O` [Pyruvic acid] gave a Total cello-oligomers produced of 9.0 µM, a cellobiose produced of 5.6 µM and a cellotriose produced of 3.3 µM.

A further experiment deals with T1, NcLPMO9C.
Experiment: not given
The settings on record: 0.5 µM NcLPMO9C, 1 mM ascorbic acid, 100 µM H2O2, pH 6.0; acetic acid 200 mM; mean ± SD.
Take `CC(=O)O` [Acetic acid]: the “Rate (Light Intensity at 620 nm min^−1)” value is given as 0.14 ± 0.01 Light Intensity at 620 nm min^−1.
As to `O=C(O)CC(O)(CC(=O)O)C(=O)O` [Citric acid], the “Rate (Light Intensity at 620 nm min^−1)” value is 0.014 ± 0.001 Light Intensity at 620 nm min^−1.
The same measure, in the same setting: the value for `CC(O)C(=O)O` (centres unmarked) [Lactic acid] was 0.08 ± 0.02 Light Intensity at 620 nm min^−1; that for `O=C(O)C(=O)O` [Oxalic acid] was 0.002 ± 0.001 Light Intensity at 620 nm min^−1.
`O=P(O)(O)O` [Phosphoric acid]: the “Rate (Light Intensity at 620 nm min^−1)” value is recorded as 0.107 ± 0.02 Light Intensity at 620 nm min^−1.

The experiment is the same for the next values; noted with them: pH 6.
Compound `O=C(O)CC(O)(CC(=O)O)C(=O)O` [Citric acid] gave an activity of 8 ± 1%.
For the compound `CC(O)C(=O)O` (centres unmarked) [Lactic acid], the activity is 47 ± 13%.

The target of a further experiment is T1, NcLPMO9C. The experiment can be described thus: Amplex Red–horseradish peroxidase assay of the uncoupling reaction (H2O2 production) of LPMO. Format: biochemical. On the set-up: made in house; host or cells: Pichia pastoris X-33. The settings on record: 1 µM NcLPMO9C, 1 µM NcCDHIIA, 10 mM lactose, 50 µM AmplexRed, 7 U mL-1 horseradish peroxidase; 100 mM sodium acetate buffer pH 6.0, without or with 100 mM oxalic acid. The protocol:
(§1) The Amplex Red–horseradish peroxidase assay was used to measure the uncoupling reaction of NcLPMO9C that produces superoxide or H2O2. The activity of LPMO was measured in the presence of oxalic acid as an inhibitory compound.
For the compound `CC(=O)O` [Acetic acid], the “Specific activity, NcLPMO9C - background” value is on record as 4.9 ± 0.1 U g-1.
On the same count and under the same terms, in the case of `O=C(O)C(=O)O` [Oxalic acid] it was 0.1 ± 0.1 U g-1.

The same experiment, now with this note: not background-corrected; 1 µM NcLPMO9C, 1 µM NcCDHIIA, 10 mM lactose, 50 µM AmplexRed, 7 U mL-1 horseradish peroxidase.
As to `CC(=O)O` [Acetic acid], the “Specific activity, NcLPMO9C” value amounted to 7.5 ± 0.1 U g-1.
As to `O=C(O)C(=O)O` [Oxalic acid], the “Specific activity, NcLPMO9C” value was 3.5 ± 0.1 U g-1.

The next experiment concerns the target T1, NcLPMO9C.
Experiment: not given
The settings on record: >100 mM of the substance; 2,6-DMP and hydrocoerulignone assays.
Consider `O=C(O)CC(O)(CC(=O)O)C(=O)O` [Citric acid], for which the “peroxidase activity of LPMO at higher concentrations” value is “nondetectable level”.
For the compound `N[C@@H](Cc1c[nH]cn1)C(=O)O` [Histidine], the “peroxidase activity of LPMO at higher concentrations” value is reported as “nondetectable level”.
Still for that read-out and setting: the value for `O=C(O)C(=O)O` [Oxalic acid] was “nondetectable level”.

Still in this experiment, the particulars now being: pH 6.
In the case of `O=CC=O` [Glyoxal], the “Residual activity to 100 mM acetate buffer, Hydro-Coerulignone” value is listed as 43.9 ± 3.6%.
`O=CC(=O)O` [Glyoxylic acid]: the “Residual activity to 100 mM acetate buffer, Hydro-Coerulignone” value was determined as 1.1 ± 0.3%.
Same read-out and setting: the value for `c1c[nH]cn1` [Imidazole] was 72.2 ± 3.9%.

The same experiment, now with this note: peroxidase assays.
Consider `[F-].[Na+]` [NaF], for which the “effect on the activity of the LPMO” value was “did not show any effect on the activity of the LPMO until very high concentrations were used”.

Still in this experiment, the particulars now being: read-out: IC50 values as summarised in the text; for both assays (2,6-DMP and hydrocoerulignone), peroxidase reaction.
For the compound `O=S(=O)([O-])[O-].[Na+].[Na+]` [Na2SO4], the IC50 was roughly 30 mM.

Another experiment concerns the target T1, NcLPMO9C. The experiment can be described thus: biochemical. The settings on record: IC50 values as summarised in the text, for both assays (2,6-DMP and hydrocoerulignone), peroxidase reaction.
Method: LPMO-activity assay using 2000 µM 2,6-DMP or 500 µM hydrocoerulignone were carried out in 100 mM sodium acetate buffer at pH 6.0, at 30 °C using 100 µM H2O2, at 469 nm and a reaction time of 300 s. For blank reactions, the same experiments were performed without adding LPMO. The resulting rate was subtracted from the rate with the addition of LPMO. One unit of LPMO activity is defined as the conversion of either 2 µmol 2,6-DMP or 1 µmol hydrocoerulignone or the formation of 1 µmol coerulignone (ε469 = 53,200 M^−1 cm^−1) per min under reaction conditions. For the inhibition tests, the 100 mM sodium acetate buffer at pH 6.0 was supplemented with 100 mM of the different compounds and the pH was checked before and after the measurements.
By measuring the LPMO activity in 100 mM sodium acetate buffer, we determined the maximum activity achievable for the applied conditions.
The compound `N[C@@H](Cc1c[nH]cn1)C(=O)O` [Histidine] showed an IC50 of roughly 1 mM.
On the same count and under the same terms, in the case of `O=C(O)C(=O)O` [Oxalic acid] it was roughly 1 mM.

The experiment is the same for the next values; noted with them: pH 6, read-out: Residual activity to 100 mM acetate buffer, Hydro-Coerulignone.
In the case of `N[C@@H](Cc1c[nH]cn1)C(=O)O` [Histidine], the remaining activity at 100000 µM came to 0.4 ± 0.2%.
The same measure, in the same setting: the value for `O=C(O)C(=O)O` [Oxalic acid] was 0.6 ± 0.1%; that for `CC(=O)C(=O)O` [Pyruvic acid] was 4.1 ± 0.4%.

The next experiment deals with NcCDHIIA. The experiment can be described thus: Amplex Red–horseradish peroxidase assay, background H2O2 production by CDH. The settings on record: 100 mM oxalic acid. Format: biochemical, Neurospora crassa. As to the method:
as §1
For the compound `O=C(O)C(=O)O` [Oxalic acid], the “H2O2 production by NcCDHIIA” value is listed as “not inhibited”.

Staying with this experiment, now noted: without LPMO; 1 µM NcCDHIIA, 10 mM lactose, 50 µM AmplexRed, 7 U mL-1 horseradish peroxidase.
On to `CC(=O)O` [Acetic acid], for which the “Specific activity, Background” value came to 2.6 ± 0.1 U g-1.
For `O=C(O)C(=O)O` [Oxalic acid], the “Specific activity, Background” value was determined as 3.4 ± 0.1 U g-1.
